# Assay results reported in US10105357B2, “Indication of antibiotic drugs for preparation of cancer inhibition pharmaceutical composition” (LAUNX BIOMEDICAL CO., LTD., priority 2014, dated 2018).
# Like-named read-outs stand apart in the source and are kept apart here.
# Experiments:
# Assay type in all cases: cell-based, human
# AsPC-1 = test: Cell viability analysis, pancreatic cancer AsPC-1
# [1] = tested on: MKN-45 (Gastric Adenocarcinoma); test: Cell viability analysis, gastric cancer MKN-45; conditions: MKN-45; repeated experiment
# [2] = tested on: MCF7 (Mammary Gland, Adenocarcinoma); test: Cell viability analysis, breast cancer MCF7; conditions: MCF-7; repeated experiment
# [3] = tested on: A549 (Lung Adenocarcinoma); test: Cell viability analysis, lung cancer A549; conditions: A549; repeated experiment
# [4] = tested on: SAS (Tongue squamous cell carcinoma); test: Cell viability analysis, tongue cancer SAS
# [5] = tested on: A375 (Amelanotic Melanoma); test: Cell viability analysis, skin cancer A375; conditions: A375; repeated experiment
# BxPC-3 = test: Cell viability analysis, pancreatic cancer BxPC-3
# T24 = test: Cell viability analysis, bladder cancer T24
# NIH: OVCAR-3 = test: Cell viability analysis, ovarian cancer NIH: OVCAR-3
# [6] = tested on: Hep3B (hepatocellular carcinoma); test: Cell viability analysis, hepatic cancer Hep3B; conditions: Hep3B
# [7] = tested on: HeLa (Cervix Adenocarcinoma); test: Cell viability analysis, cervical cancer HeLa; conditions: HeLa; repeated experiment
# [8] = tested on: HI650 (Lung Adenocarcinoma); test: Cell viability analysis, lung cancer HI650; conditions: H1650; repeated experiment
# [9] = tested on: C-33A (Cervical carcinoma); test: Cell viability analysis, cervical cancer C-33A
# [10] = tested on: MDA-MB-231 (Mammary Gland, Adenocarcinoma); test: Cell viability analysis, breast cancer MDA-MB-231
# [11] = tested on: BCC (basal cell carcinoma); test: Cell viability analysis, skin cancer BCC
# U-2OS = test: Cell viability analysis, osteosarcoma U-2OS; conditions: U2OS
# [12] = tested on: LoVo (Colorectal Adenocarcinoma); test: Cell viability analysis, colon cancer LoVo; conditions: LoVo; for viability at 10 µM: Homo sapiens, 72 h
# TOV-21G = test: Cell viability analysis, ovarian cancer TOV-21G; conditions: TOV-21G; repeated experiment
# [13] = tested on: 786-O (Renal adenocarcinoma); test: Cell viability analysis, renal cancer 786-O
# cancer cell lines = test: Cell viability analysis (WST-1) on cancer cell lines; conditions: drug 10 μM, 72 hours, WST-1; Table 3
smiles,measurement,setting,value
Cc1onc(-c2ccccc2Cl)c1C(=O)N[C@@H]1C(=O)N2[C@@H]1SC(C)(C)[C@@H]2C(=O)[O-].[Na+] [Cloxacillin sodium (Cloxacap)],"The results of antibiotic drug inhibiting cancer cell lines (cell viability analysis), AsPC-1","AsPC-1; AsPC-1, repeated experiment",80
same,"The results of antibiotic drug inhibiting cancer cell lines (cell viability analysis), MKN-45",[1],111.3
same,"The results of antibiotic drug inhibiting cancer cell lines (cell viability analysis), MCF-7",[2],103.7
same,"The results of antibiotic drug inhibiting cancer cell lines (cell viability analysis), A549",[3],98.33
same,"The results of antibiotic drug inhibiting cancer cell lines (cell viability analysis), SAS","[4]; SAS, repeated experiment",70.4
same,"The results of antibiotic drug inhibiting cancer cell lines (cell viability analysis), A375",[5],110.7
same,"The results of antibiotic drug inhibiting cancer cell lines (cell viability analysis), BxPC-3","BxPC-3; BxPC-3, repeated experiment",69.13
same,"The results of antibiotic drug inhibiting cancer cell lines (cell viability analysis), T24","T24; T24, repeated experiment",100.9
same,"The results of antibiotic drug inhibiting cancer cell lines (cell viability analysis), NIH-OVCAR-3","NIH: OVCAR-3; NIH-OVCAR-3, repeated experiment",106.9
same,"The results of antibiotic drug inhibiting cancer cell lines (cell viability analysis), Hep3B",[6]; repeated experiment,118.4
same,"The results of antibiotic drug inhibiting cancer cell lines (cell viability analysis), HeLa",[7],120.1
same,"The results of antibiotic drug inhibiting cancer cell lines (cell viability analysis), H1650",[8],86.43
same,"The results of antibiotic drug inhibiting cancer cell lines (cell viability analysis), C-33A","[9]; C-33A, repeated experiment",104.6
same,"The results of antibiotic drug inhibiting cancer cell lines (cell viability analysis), MDA-MB231","[10]; MDA-MB231, repeated experiment",101.6
same,"The results of antibiotic drug inhibiting cancer cell lines (cell viability analysis), BCC","[11]; BCC, repeated experiment",116.6
same,"The results of antibiotic drug inhibiting cancer cell lines (cell viability analysis), U2OS",U-2OS; repeated experiment,69.87
same,"The results of antibiotic drug inhibiting cancer cell lines (cell viability analysis), LoVo",[12]; repeated experiment,98.38
same,"The results of antibiotic drug inhibiting cancer cell lines (cell viability analysis), TOV-21G",TOV-21G,105.9
same,"The results of antibiotic drug inhibiting cancer cell lines (cell viability analysis), 786-O","[13]; 786-O, repeated experiment",106.1
CC(C)c1nc(CN(C)C(=O)N[C@H](C(=O)N[C@@H](Cc2ccccc2)C[C@H](O)[C@H](Cc2ccccc2)NC(=O)OCc2cncs2)C(C)C)cs1 [Ritonavir],viability at 10 µM,"AsPC-1; Homo sapiens, ASPC1, 72 h, read-out: The results of antibiotic drug inhibiting cancer cell lines (cell viability analysis), AsPC-1",88.6%
same,viability at 10 µM,"[4]; Homo sapiens, 72 h, read-out: The results of antibiotic drug inhibiting cancer cell lines (cell viability analysis), SAS",73.2%
same,viability at 10 µM,"BxPC-3; Homo sapiens, BXPC-3, 72 h, read-out: The results of antibiotic drug inhibiting cancer cell lines (cell viability analysis), BxPC-3",89.6%
same,viability at 10 µM,"T24; Homo sapiens, T-24, 72 h, read-out: The results of antibiotic drug inhibiting cancer cell lines (cell viability analysis), T24",97.3%
same,viability at 10 µM,"NIH: OVCAR-3; Homo sapiens, OVCAR-3, 72 h, read-out: The results of antibiotic drug inhibiting cancer cell lines (cell viability analysis), NIH-OVCAR-3",92.2%
same,viability at 10 µM,"[6]; Homo sapiens, 72 h, read-out: The results of antibiotic drug inhibiting cancer cell lines (cell viability analysis), Hep3B",102%
same,viability at 10 µM,"[9]; Homo sapiens, C-33-A, 72 h, read-out: The results of antibiotic drug inhibiting cancer cell lines (cell viability analysis), C-33A",111%
same,viability at 10 µM,"[10]; Homo sapiens, MDA-MB-231, 72 h, read-out: The results of antibiotic drug inhibiting cancer cell lines (cell viability analysis), MDA-MB231",102%
same,viability at 10 µM,"[11]; Homo sapiens, 72 h, read-out: The results of antibiotic drug inhibiting cancer cell lines (cell viability analysis), BCC",86.4%
same,viability at 10 µM,"U-2OS; Homo sapiens, 72 h, read-out: The results of antibiotic drug inhibiting cancer cell lines (cell viability analysis), U2OS",87.1%
same,viability at 10 µM,"[12]; read-out: The results of antibiotic drug inhibiting cancer cell lines (cell viability analysis), LoVo, repeated experiment",90.2%
same,viability at 10 µM,"[12]; read-out: cell viability (survival rate), LoVo, drug 10 μM, 72 hours, WST-1, OD450 nm",82.3%
same,inhibition effect on different cancer cell lines,cancer cell lines,significant inhibition effect
same,viability at 10 µM,"[13]; Homo sapiens, 786-0, 72 h, read-out: The results of antibiotic drug inhibiting cancer cell lines (cell viability analysis), 786-O",102%
